Test results reported in patent US5304633A, “Fragments of lactoferrin having potent antimicrobial activity” (priority 1990, dated 1994).
Like-named read-outs stand apart in the source and are kept apart here. Positions of bridges follow the written chain, without caps; N, C: chain ends. Chains are numbered I, II in the order given. No end group written: not given here.

Legend:
[1] = tested on: gram-positive bacteria and gram-negative bacteria, including aerobic and anaerobic bacteria and yeast; assay: Antimicrobial spectrum, MIC in liquid medium (Experiment 12), overall; type: cell-based; details: many types of gram-positive and gram-negative bacteria and yeast; peptone or PYG medium
Description: The various microorganisms shown in Table 3 and in Table 4 were incubated for 16 to 20 hours in 2 ml of peptone medium which consisted of 1% Bactopeptone (manufactured by Difco Laboratory Co.), or in 2 ml of PYG medium which consisted of 1% Bactopeptone (manufactured by Difco Laboratory Co.), 1% glucose and 0.05% yeast extract. The antimicrobial peptide was added to each medium at various ratios of 0 μg/ml to 60 μg/ml. Standard bacterial strains of various microorganisms in the logarithmic phase were inoculated into the various media at a cell concentration of 10^6 /ml and incubated at 37° C., with the exception of the bacterial strains mentioned in the footnotes of the tables. The growth of the various microorganisms was studied by measuring the light absorption at 660 nm.

various fungi = details: 20 h
Escherichia coli = type: cell-based; details: 16 h
Description: Bactocasitone (manufactured by Difco Laboratory Co.) was dissolved at a concentration of 1% in purified water, the pH was adjusted to 7.0 with 1M sodium hydroxide, the solution was sterilized at 115° C. for 15 minutes and a basal medium (liquid medium) was prepared. Each sample was dissolved at a concentration of […] in purified water, sterilization was performed by using a sterilization filter (manufactured by […] Co.) and test media, prepared by adding samples at concentrations of 1, 5, 10, 50 and 100 ppm to the basal medium, as well as a control medium with no added samples, were prepared. […] wherein A is the difference in turbidity of the test culture medium (the difference between the turbidity of the test culture medium after 16 hours of culture and the turbidity of the test culture medium before the culturing) and B is the turbidity of the control medium (the difference between the turbidity of the control culture medium after 16 hours of culture and the turbidity of the control culture medium before the culturing). The percentages of the rate of inhibition of proliferation are not in weight (same hereinafter).

Row | Compound | concentration showing antimicrobial activity (MIC, summary of Tables 3 and 4) [1] | concentration showing antimicrobial activity (MIC, summary of Table 7) (various fungi) | inhibitory rate (rate of inhibition of E. coli proliferation) (Escherichia coli; 1 ppm) [%] | inhibitory rate (rate of inhibition of E. coli proliferation) (Escherichia coli; 5 ppm) [%] | inhibitory rate (rate of inhibition of E. coli proliferation) (Escherichia coli; 10 ppm) [%] | inhibitory rate (rate of inhibition of E. coli proliferation) (Escherichia coli; 50 ppm) [%] | inhibitory rate (rate of inhibition of E. coli proliferation) (Escherichia coli; 100 ppm) [%]
1 | CC[C@H](C)[C@@H]1NC(=O)[C@H](CO)NC(=O)[C@@H]2CCCN2C(=O)[C@H](C)NC(=O)CNC(=O)[C@H](CC(C)C)NC(=O)[C@H](CCCCN)NC(=O)[C@H](CCCCN)NC(=O)[C@H](CCSC)NC(=O)[C@H](CCCNC(=N)N)NC(=O)[C@H](Cc2c[nH]c3ccccc23)NC(=O)[C@H](CCC(N)=O)NC(=O)[C@H](Cc2c[nH]c3ccccc23)NC(=O)[C@H](CCCNC(=N)N)NC(=O)[C@H](CCCNC(=N)N)NC(=O)[C@@H](NC(=O)[C@H](CCCCN)NC(=O)[C@@H](N)Cc2ccccc2)CSSC[C@@H](C(=O)N[C@H](C(=O)N[C@@H](CCCNC(=N)N)C(=O)N[C@@H](CCCNC(=N)N)C(=O)N[C@@H](C)C(=O)N[C@@H](Cc2ccccc2)C(=O)O)C(C)C)NC(=O)[C@H]([C@@H](C)O)NC1=O [antimicrobial peptide of Example 1] | less than 45 μg/ml | less than 45 μg/ml |  |  |  |  | 
2 | I: VSQPEATKCFQWQRNMRKVRGPPVSCIKRDSPIQCI / II: GRRRRSVQWCA (disulfide I:9-I:26, I:35-II:10) [antimicrobial peptide of Example 3] |  |  | 3 | 86 | 100 | 100 | 100
